{
  "source": "ChEMBL document CHEMBL4813981",
  "about": "“Synthesis and in vitro antibacterial activity of new aminothiazole-oximepiperidone cephalosporins” (2021)",
  "key": {"Escherichia coli [1]": {"tested_on": "Escherichia coli", "assay": "Antibacterial activity against Escherichia coli 15-3 overexpressing extended spectrum beta-lactamases assessed as reduction in bacterial growth in the presence of Avibactam", "format": "functional"}, "Klebsiella pneumoniae [2]": {"tested_on": "Klebsiella pneumoniae", "assay": "Ratio of MBC to MIC for Klebsiella pneumoniae ATCC BAA-1705 assessed as reduction in bacterial growth", "format": "functional"}, "Klebsiella pneumoniae [3]": {"tested_on": "Klebsiella pneumoniae", "assay": "Ratio of MBC to MIC for ESBLs positive Carbapenem-sensitive Klebsiella pneumoniae 17-2 assessed as reduction in bacterial growth", "format": "functional"}, "Escherichia coli [4]": {"tested_on": "Escherichia coli", "assay": "Antibacterial activity against ESBLs negative Carbapenem-sensitive Escherichia coli 17-4 assessed as reduction in bacterial growth in the presence of Avibactam", "format": "functional"}, "Klebsiella pneumoniae [5]": {"tested_on": "Klebsiella pneumoniae", "assay": "Bactericidal activity against ESBLs negative Carbapenem-sensitive Klebsiella pneumoniae 17-17 assessed as reduction in bacterial growth", "format": "functional"}, "Escherichia coli [6]": {"tested_on": "Escherichia coli", "assay": "Ratio of MBC to MIC for ESBLs negative carbapenem-negative Escherichia coli 17-20 assessed as reduction in bacterial growth in the presence of Avibactam", "format": "functional"}, "Klebsiella aerogenes [7]": {"tested_on": "Klebsiella aerogenes", "assay": "Ratio of MBC to MIC for Enterobacter aerogenes 17-4 assessed as reduction in bacterial growth", "format": "functional"}, "Enterobacter cloacae [8]": {"tested_on": "Enterobacter cloacae", "assay": "Ratio of MBC to MIC for Enterobacter cloacae 17-9 assessed as reduction in bacterial growth in the presence of Avibactam", "format": "functional"}, "Escherichia coli [9]": {"tested_on": "Escherichia coli", "assay": "Ratio of MBC to MIC for ESBLs negative Carbapenem-sensitive Escherichia coli 17-7 assessed as reduction in bacterial growth", "format": "functional"}, "Escherichia coli [10]": {"tested_on": "Escherichia coli", "assay": "Ratio of MBC to MIC for ESBLs negative carbapenem-negative Escherichia coli 17-9 assessed as reduction in bacterial growth in the presence of Avibactam", "format": "functional"}, "Klebsiella pneumoniae [11]": {"tested_on": "Klebsiella pneumoniae", "assay": "Ratio of MBC to MIC for ESBLs negative Carbapenem-sensitive Klebsiella pneumoniae 17-16 assessed as reduction in bacterial growth", "format": "functional"}, "Enterobacter cloacae [12]": {"tested_on": "Enterobacter cloacae", "assay": "Ratio of MBC to MIC for Enterobacter cloacae 17-9 assessed as reduction in bacterial growth", "format": "functional"}, "Klebsiella aerogenes [13]": {"tested_on": "Klebsiella aerogenes", "assay": "Antibacterial activity against Enterobacter aerogenes 15-6 assessed as reduction in bacterial growth in the presence of Avibactam", "format": "functional"}, "Pseudomonas aeruginosa [14]": {"tested_on": "Pseudomonas aeruginosa", "assay": "Ratio of MBC to MIC for carbapenem-sensitive Pseudomonas aeruginosa 17-7 assessed as reduction in bacterial growth in the presence of Avibactam", "format": "functional"}, "Klebsiella pneumoniae [15]": {"tested_on": "Klebsiella pneumoniae", "assay": "Antibacterial activity against ESBLs positive Carbapenem-sensitive Klebsiella pneumoniae 17-13 assessed as reduction in bacterial growth in the presence of Avibactam", "format": "functional"}, "Enterobacter cloacae [16]": {"tested_on": "Enterobacter cloacae", "assay": "Antibacterial activity against Enterobacter cloacae 17-1 assessed as reduction in bacterial growth in the presence of Avibactam", "format": "functional"}, "Escherichia coli [17]": {"tested_on": "Escherichia coli", "assay": "Ratio of MBC to MIC for ESBLs positive carbapenem-negative Escherichia coli 17-18 assessed as reduction in bacterial growth in the presence of Avibactam", "format": "functional"}, "Klebsiella aerogenes [18]": {"tested_on": "Klebsiella aerogenes", "assay": "Ratio of MBC to MIC for Enterobacter aerogenes 17-3 assessed as reduction in bacterial growth in the presence of Avibactam", "format": "functional"}, "Klebsiella aerogenes [19]": {"tested_on": "Klebsiella aerogenes", "assay": "Antibacterial activity against Enterobacter aerogenes 17-3 assessed as reduction in bacterial growth in the presence of Avibactam", "format": "functional"}, "Escherichia coli [20]": {"tested_on": "Escherichia coli", "assay": "Antibacterial activity against ESBLs positive Carbapenem-sensitive Escherichia coli 17-12 assessed as reduction in bacterial growth in the presence of Avibactam", "format": "functional"}, "Klebsiella pneumoniae [21]": {"tested_on": "Klebsiella pneumoniae", "assay": "Antibacterial activity against ESBLs positive Carbapenem-sensitive Klebsiella pneumoniae 17-5 assessed as reduction in bacterial growth in the presence of Avibactam", "format": "functional"}, "Klebsiella aerogenes [22]": {"tested_on": "Klebsiella aerogenes", "assay": "Antibacterial activity against Enterobacter aerogenes 15-4 assessed as reduction in bacterial growth in the presence of Avibactam", "format": "functional"}, "Enterobacter cloacae [23]": {"tested_on": "Enterobacter cloacae", "assay": "Antibacterial activity against Enterobacter cloacae 17-9 assessed as reduction in bacterial growth"}, "Klebsiella aerogenes [24]": {"tested_on": "Klebsiella aerogenes", "assay": "Bactericidal activity against Enterobacter aerogenes 17-4 assessed as reduction in bacterial growth", "format": "functional"}, "Escherichia coli [25]": {"tested_on": "Escherichia coli", "assay": "Antibacterial activity against ESBLs negative Carbapenem-sensitive Escherichia coli 17-16 assessed as reduction in bacterial growth in the presence of Avibactam", "format": "functional"}, "Pseudomonas aeruginosa [26]": {"tested_on": "Pseudomonas aeruginosa", "assay": "Ratio of MBC to MIC for Pseudomonas aeruginosa ATCC 27853 assessed as reduction in bacterial growth in the presence of Avibactam", "format": "functional"}, "Escherichia coli [27]": {"tested_on": "Escherichia coli", "assay": "Ratio of MBC to MIC for Escherichia coli ATCC 25922 assessed as reduction in bacterial growth", "format": "functional"}, "Klebsiella aerogenes [28]": {"tested_on": "Klebsiella aerogenes", "assay": "Ratio of MBC to MIC for Enterobacter aerogenes 15-4 assessed as reduction in bacterial growth", "format": "functional"}, "Acinetobacter baumannii": {"tested_on": "Acinetobacter baumannii", "assay": "Antibacterial activity against Carbapenem- resistant Acinetobacter baumannii 17-11 assessed as reduction in bacterial growth"}, "Klebsiella pneumoniae [29]": {"tested_on": "Klebsiella pneumoniae", "assay": "Ratio of MBC to MIC for ESBLs positive Carbapenem-sensitive Klebsiella pneumoniae 17-6 assessed as reduction in bacterial growth", "format": "functional"}, "Enterobacter cloacae [30]": {"tested_on": "Enterobacter cloacae", "assay": "Ratio of MBC to MIC for Enterobacter cloacae 17-8 assessed as reduction in bacterial growth", "format": "functional"}, "Klebsiella pneumoniae [31]": {"tested_on": "Klebsiella pneumoniae", "assay": "Antibacterial activity against ESBLs negative Carbapenem-sensitive Klebsiella pneumoniae 17-16 assessed as reduction in bacterial growth in the presence of Avibactam", "format": "functional"}, "Pseudomonas aeruginosa [32]": {"tested_on": "Pseudomonas aeruginosa", "assay": "Ratio of MBC to MIC for carbapenem-sensitive Pseudomonas aeruginosa 17-10 assessed as reduction in bacterial growth in the presence of Avibactam", "format": "functional"}, "Klebsiella aerogenes [33]": {"tested_on": "Klebsiella aerogenes", "assay": "Ratio of MBC to MIC for Enterobacter aerogenes 17-3 assessed as reduction in bacterial growth", "format": "functional"}, "Pseudomonas aeruginosa [34]": {"tested_on": "Pseudomonas aeruginosa", "assay": "Ratio of MBC to MIC for carbapenem-sensitive Pseudomonas aeruginosa 17-26 assessed as reduction in bacterial growth", "format": "functional"}, "Escherichia coli [35]": {"tested_on": "Escherichia coli", "assay": "Antibacterial activity against ESBLs positive Carbapenem-sensitive Escherichia coli 17-2 assessed as reduction in bacterial growth in the presence of Avibactam", "format": "functional"}, "Klebsiella pneumoniae [36]": {"tested_on": "Klebsiella pneumoniae", "assay": "Ratio of MBC to MIC for ESBLs positive Carbapenem-sensitive Klebsiella pneumoniae 17-2 assessed as reduction in bacterial growth in the presence of Avibactam", "format": "functional"}, "Klebsiella aerogenes [37]": {"tested_on": "Klebsiella aerogenes", "assay": "Antibacterial activity against Enterobacter aerogenes 17-4 assessed as reduction in bacterial growth"}, "Escherichia coli [38]": {"tested_on": "Escherichia coli", "assay": "Bactericidal activity against ESBLs positive Carbapenem-sensitive Escherichia coli 17-10 assessed as reduction in bacterial growth", "format": "functional"}, "Enterobacter cloacae [39]": {"tested_on": "Enterobacter cloacae", "assay": "Bactericidal activity against Enterobacter cloacae 17-9 assessed as reduction in bacterial growth", "format": "functional"}, "Pseudomonas aeruginosa [40]": {"tested_on": "Pseudomonas aeruginosa", "assay": "Antibacterial activity against Carbapenem- resistant Pseudomonas aeruginosa 17-1 assessed as reduction in bacterial growth"}, "Klebsiella pneumoniae [41]": {"tested_on": "Klebsiella pneumoniae", "assay": "Antibacterial activity against ESBLs negative Carbapenem-sensitive Klebsiella pneumoniae 17-17 assessed as reduction in bacterial growth"}, "Enterobacter cloacae [42]": {"tested_on": "Enterobacter cloacae", "assay": "Bactericidal activity against Enterobacter cloacae 17-8 assessed as reduction in bacterial growth", "format": "functional"}},
  "data": [
    {"smiles": "Nc1nc(/C(=N/OCc2cc(=O)c(O)cn2O)C(=O)N[C@@H]2C(=O)N3C(C(=O)O)=CCS[C@H]23)cs1", "values": [
      {"measurement": "MIC", "setting": "Escherichia coli [1]", "value": 1, "unit": "µg/mL"},
      {"measurement": "Ratio", "setting": "Klebsiella pneumoniae [2]", "value": ">1"},
      {"measurement": "Ratio", "setting": "Klebsiella pneumoniae [3]", "value": 1},
      {"measurement": "MIC", "setting": "Escherichia coli [4]", "value": 0.125, "unit": "µg/mL"},
      {"measurement": "MBC", "setting": "Klebsiella pneumoniae [5]", "value": 0.25, "unit": "µg/mL"},
      {"measurement": "Ratio", "setting": "Escherichia coli [6]", "value": ">16"},
      {"measurement": "Ratio", "setting": "Klebsiella aerogenes [7]", "value": 2},
      {"measurement": "Ratio", "setting": "Enterobacter cloacae [8]", "value": 1},
      {"measurement": "Ratio", "setting": "Escherichia coli [9]", "value": 2},
      {"measurement": "Ratio", "setting": "Escherichia coli [10]", "value": 4},
      {"measurement": "Ratio", "setting": "Klebsiella pneumoniae [11]", "value": 1},
      {"measurement": "Ratio", "setting": "Enterobacter cloacae [12]", "value": 1},
      {"measurement": "MIC", "setting": "Klebsiella aerogenes [13]", "value": 0.5, "unit": "µg/mL"},
      {"measurement": "Ratio", "setting": "Pseudomonas aeruginosa [14]", "value": 1},
      {"measurement": "MIC", "setting": "Klebsiella pneumoniae [15]", "value": "≤ 0.03", "unit": "µg/mL"},
      {"measurement": "MIC", "setting": "Enterobacter cloacae [16]", "value": 1, "unit": "µg/mL"},
      {"measurement": "Ratio", "setting": "Escherichia coli [17]", "value": 2},
      {"measurement": "Ratio", "setting": "Klebsiella aerogenes [18]", "value": 1},
      {"measurement": "MIC", "setting": "Klebsiella aerogenes [19]", "value": 0.5, "unit": "µg/mL"},
      {"measurement": "MIC", "setting": "Escherichia coli [20]", "value": 0.25, "unit": "µg/mL"},
      {"measurement": "MIC", "setting": "Klebsiella pneumoniae [21]", "value": 1, "unit": "µg/mL"},
      {"measurement": "MIC", "setting": "Klebsiella aerogenes [22]", "value": 0.5, "unit": "µg/mL"},
      {"measurement": "MIC", "setting": "Enterobacter cloacae [23]", "value": 8, "unit": "µg/mL"},
      {"measurement": "MBC", "setting": "Klebsiella aerogenes [24]", "value": 16, "unit": "µg/mL"},
      {"measurement": "MIC", "setting": "Escherichia coli [25]", "value": 0.5, "unit": "µg/mL"},
      {"measurement": "Ratio", "setting": "Pseudomonas aeruginosa [26]", "value": 4},
      {"measurement": "Ratio", "setting": "Escherichia coli [27]", "value": ">16"},
      {"measurement": "Ratio", "setting": "Klebsiella aerogenes [28]", "value": 1},
      {"measurement": "MIC", "setting": "Acinetobacter baumannii", "value": "> 64", "unit": "µg/mL"},
      {"measurement": "Ratio", "setting": "Klebsiella pneumoniae [29]", "value": 2},
      {"measurement": "Ratio", "setting": "Enterobacter cloacae [30]", "value": 1},
      {"measurement": "MIC", "setting": "Klebsiella pneumoniae [31]", "value": 0.06, "unit": "µg/mL"},
      {"measurement": "Ratio", "setting": "Pseudomonas aeruginosa [32]", "value": 2},
      {"measurement": "Ratio", "setting": "Klebsiella aerogenes [33]", "value": 1},
      {"measurement": "Ratio", "setting": "Pseudomonas aeruginosa [34]", "value": ">8"},
      {"measurement": "MIC", "setting": "Escherichia coli [35]", "value": 0.25, "unit": "µg/mL"},
      {"measurement": "Ratio", "setting": "Klebsiella pneumoniae [36]", "value": 1}
    ]},
    {"smiles": "CC(C)(O/N=C(\\C(=O)N[C@@H]1C(=O)N2C(C(=O)[O-])=C(C[n+]3ccccc3)CS[C@H]12)c1csc(N)n1)C(=O)O", "note": "[CEFTAZIDIME]", "values": [
      {"measurement": "MIC", "setting": "Klebsiella aerogenes [37]", "value": 8, "unit": "µg/mL"},
      {"measurement": "MBC", "setting": "Escherichia coli [38]", "value": 16, "unit": "µg/mL"},
      {"measurement": "MBC", "setting": "Enterobacter cloacae [39]", "value": "> 4", "unit": "µg/mL"},
      {"measurement": "MIC", "setting": "Pseudomonas aeruginosa [40]", "value": 32, "unit": "µg/mL"},
      {"measurement": "MIC", "setting": "Klebsiella pneumoniae [41]", "value": 0.125, "unit": "µg/mL"},
      {"measurement": "MBC", "setting": "Enterobacter cloacae [42]", "value": 1, "unit": "µg/mL"}
    ]}
  ]
}
